For experiment [1], the target named is T1, ULK1 kinase (Homo sapiens, UniProt O75385, E37A/K38A).
T1 construct: (residues 1-283; ID NO: 1); purchased Beryllium
T1 sequence (O75385 1-283 E37A/K38A): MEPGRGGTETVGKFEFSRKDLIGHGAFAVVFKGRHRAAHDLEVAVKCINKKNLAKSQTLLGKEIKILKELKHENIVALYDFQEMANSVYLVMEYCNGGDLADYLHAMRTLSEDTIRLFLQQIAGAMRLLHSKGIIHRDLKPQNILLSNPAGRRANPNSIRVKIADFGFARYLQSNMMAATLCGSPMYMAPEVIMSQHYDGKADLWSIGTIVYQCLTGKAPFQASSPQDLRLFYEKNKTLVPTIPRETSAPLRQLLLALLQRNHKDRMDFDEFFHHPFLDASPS
Put plainly: Biochemical assay for ULK1 (coupled pyruvate kinase/lactate dehydrogenase assay). The settings on record: 1 mM ATP, 0.1 nM ULK1; read-out: ULK1 (inhibition of biochemical activity), IC50. In a few lines: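 IC50 values were fitted to percent inhibition, normalised with no-compound and known-inhibitor controls, using rates from 2–3 h of a 6 h read at 30 °C. ADP was coupled through pyruvate kinase/lactate dehydrogenase to NADH loss at 340 nm.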

The target in experiment [2] is T2, ULK2 kinase (Homo sapiens, UniProt Q8IYT8).
T2 construct: (residues 1-306 with N-terminal GST and His tag; ID NO: 2); purchased Signal Chem U02-11G
T2 sequence (Q8IYT8 with tags, fused parts or gaps): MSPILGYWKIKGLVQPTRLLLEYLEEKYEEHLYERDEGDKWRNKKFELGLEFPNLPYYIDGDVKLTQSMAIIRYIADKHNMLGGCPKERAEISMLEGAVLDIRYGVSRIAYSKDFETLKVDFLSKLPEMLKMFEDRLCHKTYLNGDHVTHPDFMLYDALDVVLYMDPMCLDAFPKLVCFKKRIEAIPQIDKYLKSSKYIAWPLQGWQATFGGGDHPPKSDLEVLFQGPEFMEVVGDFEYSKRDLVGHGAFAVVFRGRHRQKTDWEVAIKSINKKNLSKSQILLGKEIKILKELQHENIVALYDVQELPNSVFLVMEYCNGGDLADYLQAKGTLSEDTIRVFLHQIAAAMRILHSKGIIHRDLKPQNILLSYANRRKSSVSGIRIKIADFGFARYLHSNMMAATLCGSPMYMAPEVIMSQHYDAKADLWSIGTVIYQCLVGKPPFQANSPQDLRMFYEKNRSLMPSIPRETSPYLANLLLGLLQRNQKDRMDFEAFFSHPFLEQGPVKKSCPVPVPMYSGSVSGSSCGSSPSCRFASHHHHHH
Put plainly: Biochemical assay for ULK2 (coupled pyruvate kinase/lactate dehydrogenase assay). Particulars: 1 mM ATP, 1 nM ULK2; read-out: ULK2 (inhibition of biochemical activity), IC50. The procedure, abridged:
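Continuous PK/LDH-coupled NADH oxidation assay (A340) with 1 nM ULK2, 200 μM ULKtide and 1 mM ATP in Tris pH 7.5, 15 mM MgCl2, 1% DMSO, read 6 h at 30° C. Rates from the 2-3 h window converted to percent inhibition against no-compound and known-inhibitor controls; IC50 by four-parameter sigmoidal fit.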

In experiment [3] the test system is ULK kinase substrate ATG13 (pS318-ATG13) in MiaPaCa-2 cells. As to the kind of experiment: pATG13 levels of mutant KRas MiaPaCa-2 cells after treatment with ULK inhibitors in combination with trametinib (ELISA). Type of experiment: cell-based, human. The procedure, abridged: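 MiaPaCa-2 cells grown overnight, then dosed with test compound titration plus trametinib (final 250 nM) or DMSO, overnight at 37° C. Lysate pS318-ATG13 measured by sandwich ELISA (total ATG13 capture, biotinylated pS318 detection, HRP/TMB, A450 minus A540); % phosphorylation vs control wells fitted to IC50.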

pIC50: −log10 of the molar value.

One may read the pIC50 as the IC50 on a negative log10 scale, so that one unit is a factor of ten. For the molecule `CC/C(Nc1cnn(C2CCN(C(C)C)CC2)c1)=C1/C(=O)Nc2ccc(C(=O)NCC(F)(F)F)cc21` [Example 8], the negative-log IC50 (pIC50) is at least 8.00 in experiment [1], 7.00 to 8.00 in experiment [2] and at least 7.00 in experiment [3].

On to `CC/C(Nc1cnn(C2CC3CCC(C2)N3C)c1)=C1/C(=O)Nc2ccc(C(=O)NC[C@H]3CCCO3)cc21` (stereo partly drawn) [Example 53], for which the values for the pIC50 in experiment [1], in experiment [2] and in experiment [3] were at least 8.00, 7.00 to 8.00 and at least 7.00, respectively.

With `CC/C(Nc1cnn(C2CCN(C(C)C)CC2)c1)=C1/C(=O)Nc2ccc(C(=O)NCC(C)C)cc21` [Example 16], the pIC50 is at least 8.00 in experiment [1], 7.00 to 8.00 in experiment [2] and at least 7.00 in experiment [3].

Take `CC/C(Nc1cnn(C(C)C)c1)=C1/C(=O)Nc2ccc(C(=O)N[C@H](C)C(F)(F)F)cc21` [Example 119]: the negative logarithm of the IC50 (pIC50) was at least 8.00 in experiment [1], 7.00 to 8.00 in experiment [2] and at least 7.00 in experiment [3].

Consider `CC/C(Nc1cnn(CC)c1)=C1/C(=O)Nc2ccc(C(=O)NCC(F)(F)F)cc21` [Example 107], for which the results for the pIC50 in experiment [1], in experiment [2] and in experiment [3] were at least 8.00, 7.00 to 8.00 and at least 7.00, respectively.

With `CC/C(Nc1cnn(C(C)C)c1)=C1/C(=O)Nc2ccc(C(=O)NCC3(C(F)(F)F)CC3)cc21` [Example 140], the pIC50 in experiment [1] is at least 8.00; in experiment [2], 7.00 to 8.00; in experiment [3], at least 7.00.

For `CC/C(Nc1cnn(C(C)C)c1)=C1/C(=O)Nc2ccc(C(=O)NC[C@@H](C)OC)cc21` [Example 128], the pIC50 in experiment [1] is 7.00 to 8.00; in experiment [2], 6.30 to 7.00; in experiment [3], 6.22 to 6.52.

Take `CC/C(Nc1cnn(C2CCN(C3CCOCC3)CC2)c1)=C1/C(=O)Nc2ccc(C(=O)NCC(C)C)cc21` [Example 37]: the pIC50 in experiment [1] is at least 8.00; in experiment [2] it was 7.00 to 8.00; in experiment [3], at least 7.00.

For the molecule `CC/C(Nc1ccc(N2CC3CC(C2)N3C)cc1)=C1/C(=O)Nc2ccc(C(=O)NCC(F)(F)F)cc21` [Example 60], the pIC50 was at least 8.00 in experiment [1], 7.00 to 8.00 in experiment [2] and at least 7.00 in experiment [3].

For `CC/C(Nc1cnn(C)c1)=C1/C(=O)Nc2ccc(C(=O)NC[C@H]3CCCO3)cc21` [Example 55], the pIC50 in experiment [1] is 7.00 to 8.00; in experiment [2] it was 6.30 to 7.00; in experiment [3] it was at least 7.00.

As to `CC/C(Nc1cnn(C(C)C)c1)=C1/C(=O)Nc2ccc(C(=O)NCC3(C)COC3)cc21` [Example 5, (Z)-3-(1-((1-isopropyl-1H-pyrazol-4-yl)amino)propylidene)-N-((3-methyloxetan-3-yl)methyl)-2-oxoindoline-5-carboxamide], the pIC50 was 7.00 to 8.00 in experiment [1], 6.30 to 7.00 in experiment [2] and 6.52 to 7.00 in experiment [3].

As to `CC/C(Nc1cnn(C2CCN(C(C)C)CC2)c1)=C1/C(=O)Nc2ccc(C(=O)NCC3CCC(C4CC4)O3)cc21` (stereo not drawn) [Example 3, (Z)—N-((5-cyclopropyltetrahydrofuran-2-yl)methyl)-3-(1-((1-(1-isopropylpiperidin-4-yl)-1H-pyrazol-4-yl)amino)propylidene)-2-oxoindoline-5-carboxamide], the values for the pIC50 in experiment [1], in experiment [2] and in experiment [3] were 7.00 to 8.00, 6.30 to 7.00 and 6.52 to 7.00, respectively.

In the case of `CC/C(Nc1cnn(C2CCOCC2)c1)=C1/C(=O)Nc2ccc(C(=O)NCC(C)(C)F)cc21` [Example 173], the values for the negative logarithm of the IC50 (pIC50) in experiment [1], in experiment [2] and in experiment [3] were at least 8.00, at least 8.00 and at least 7.00, respectively.

Consider `CC/C(Nc1ccc(N2CCN(C(C)C)CC2)cc1)=C1/C(=O)Nc2cc(F)c(C(=O)NCC(F)(F)F)cc21` [Example 100], for which the pIC50 in experiment [1] is 6.30 to 7.00; in experiment [2] it was 6.30 to 7.00; in experiment [3] it was 6.52 to 7.00.

For the molecule `CC/C(Nc1cnn(C2CC(F)(F)C2)c1)=C1/C(=O)Nc2ccc(C(=O)NCC(F)(F)F)cc21` [Example 144], the pIC50 was at least 8.00 in experiment [1], 7.00 to 8.00 in experiment [2] and at least 7.00 in experiment [3].

On to `CC/C(Nc1cnn(C2CCN(C(C)C)CC2)c1)=C1/C(=O)Nc2ccc(C(=O)NCC3CCO3)cc21` (stereo not drawn) [Example 21], for which the pIC50 in experiment [1] was 7.00 to 8.00; in experiment [2] it was 7.00 to 8.00; in experiment [3], at least 7.00.

Take `CC/C(Nc1cnn(CC)c1)=C1/C(=O)Nc2ccc(C(=O)NCC3(F)CC3)cc21` [Example 153]: the pIC50 in experiment [1] was at least 8.00; in experiment [2] it was at least 8.00; in experiment [3], at least 7.00.

Turning to `CC/C(Nc1cnn(C2CCC2)c1)=C1/C(=O)Nc2ccc(C(=O)NCC(F)(F)F)cc21` [Example 117], the results for the pIC50 in experiment [1], in experiment [2] and in experiment [3] were at least 8.00, at least 8.00 and at least 7.00, respectively.

For the molecule `CC/C(Nc1cnn([C@H]2CCOC2)c1)=C1/C(=O)Nc2ccc(C(=O)NCC(F)(F)F)cc21` [Example 104], the negative logarithm of the IC50 (pIC50) in experiment [1] is at least 8.00; in experiment [2], 7.00 to 8.00; in experiment [3] it was at least 7.00.

On to `CC/C(Nc1cnn(C(C)C)c1)=C1/C(=O)Nc2ccc(C(=O)NCC3(C#N)CC3)cc21` [Example 156], for which the pIC50 in experiment [1] was at least 8.00; in experiment [2], 7.00 to 8.00; in experiment [3], at least 7.00.

`CC/C(Nc1cnn([C@@H]2CCOC2)c1)=C1/C(=O)Nc2ccc(C(=O)NCC(F)(F)F)cc21` [Example 105]: the pIC50 in experiment [1] was at least 8.00; in experiment [2], 7.00 to 8.00; in experiment [3], at least 7.00.

Regarding `CC/C(Nc1cnn(C(C)C)c1)=C1/C(=O)Nc2ccc(C(=O)N(C)CC(F)(F)F)cc21` [Example 125], the values for the pIC50 in experiment [1], in experiment [2] and in experiment [3] were 7.00 to 8.00, 7.00 to 8.00 and 6.52 to 7.00, respectively.

As for `CC/C(Nc1cnn(C(F)F)c1)=C1/C(=O)Nc2ccc(C(=O)NCC(F)(F)F)cc21` [Example 114], the results for the pIC50 in experiment [1], in experiment [2] and in experiment [3] were 7.00 to 8.00, 7.00 to 8.00 and at least 7.00, respectively.

As to `CC/C(Nc1cnn(CCN(C)C)c1)=C1/C(=O)Nc2ccc(C(=O)NCC(F)(F)F)cc21` [Example 103], the pIC50 is at least 8.00 in experiment [1], 7.00 to 8.00 in experiment [2] and at least 7.00 in experiment [3].

Regarding `CC/C(Nc1cnn(CC(C)OC)c1)=C1/C(=O)Nc2ccc(C(=O)NCC(F)(F)F)cc21` (stereo not drawn) [Example 158], the negative logarithm of the IC50 (pIC50) in experiment [1] is 7.00 to 8.00; in experiment [2], 6.30 to 7.00; in experiment [3], 6.52 to 7.00.

For the molecule `CC/C(Nc1cnn(C(C)C)c1)=C1/C(=O)Nc2ccc(C(=O)NCC(F)F)cc21` [Example 112], the results for the negative logarithm of the IC50 (pIC50) in experiment [1], in experiment [2] and in experiment [3] were 7.00 to 8.00, 7.00 to 8.00 and at least 7.00, respectively.

For the molecule `CC/C(Nc1ccc(N2C[C@H]3CN(C)C[C@H]3C2)cc1)=C1/C(=O)Nc2ccc(C(=O)NCC(F)(F)F)cc21` [Example 61], the values for the pIC50 in experiment [1], in experiment [2] and in experiment [3] were at least 8.00, 7.00 to 8.00 and at least 7.00, respectively.

For `CC/C(Nc1cnn(C(C)C)c1)=C1/C(=O)Nc2ccc(C(=O)NCC3CCC4(CCC4)O3)cc21` (stereo not drawn) [Example 138], the pIC50 in experiment [1] is 7.00 to 8.00; in experiment [2] it was 6.30 to 7.00; in experiment [3] it was 6.22 to 6.52.

For `CC/C(Nc1cnn(C2CC2)c1)=C1/C(=O)Nc2ccc(C(=O)NCC(F)(F)F)cc21` [Example 116], the figures for the negative-log IC50 (pIC50) in experiment [1], in experiment [2] and in experiment [3] were 7.00 to 8.00, 7.00 to 8.00 and at least 7.00, respectively.

Regarding `CC/C(Nc1cc(C(F)(F)F)ccn1)=C1/C(=O)Nc2ccc(C(=O)NCC(F)(F)F)cc21` [Example 149], the figures for the pIC50 in experiment [1], in experiment [2] and in experiment [3] were 7.00 to 8.00, 7.00 to 8.00 and 6.52 to 7.00, respectively.

As for `CC/C(Nc1ccc(N2CCN(C(C)C)CC2)cc1)=C1/C(=O)Nc2ccc(C(=O)NC[C@H]3CCCO3)cc21` [Example 47], the negative logarithm of the IC50 (pIC50) was at least 8.00 in experiment [1], 7.00 to 8.00 in experiment [2] and at least 7.00 in experiment [3].

Turning to `CC/C(Nc1cnn(CC(F)F)c1)=C1/C(=O)Nc2ccc(C(=O)NCC(C)(C)F)cc21` [Example 161], the pIC50 was at least 8.00 in experiment [1], 7.00 to 8.00 in experiment [2] and at least 7.00 in experiment [3].

`CC/C(Nc1cnn(C2CCN(C(C)C)CC2)c1)=C1/C(=O)Nc2ccc(C(C)=O)cc21` [Example 123]: the pIC50 in experiment [1] was 6.30 to 7.00; in experiment [2] it was 6.30 to 7.00; in experiment [3] it was at least 7.00.

Regarding `CC/C(Nc1cnn(C2CN(C)C2)c1)=C1/C(=O)Nc2ccc(C(=O)NC[C@H]3CCCO3)cc21` [Example 54], the negative-log IC50 (pIC50) in experiment [1] is at least 8.00; in experiment [2] it was 7.00 to 8.00; in experiment [3], at least 7.00.

For `CC/C(Nc1ccc(N2CCN(C(C)C)CC2)cn1)=C1/C(=O)Nc2ccc(C(=O)NC[C@H]3CCCO3)cc21` [Example 93], the values for the pIC50 in experiment [1], in experiment [2] and in experiment [3] were at least 8.00, 7.00 to 8.00 and at least 7.00, respectively.

As for `CC/C(Nc1cnn(C(C)C)c1)=C1/C(=O)Nc2ccc(C(=O)NCCOC(F)(F)F)cc21` [Example 136], the results for the pIC50 in experiment [1], in experiment [2] and in experiment [3] were at least 8.00, 7.00 to 8.00 and at least 7.00, respectively.
